The values that follow come from ChEMBL document CHEMBL1944510, “Potent galloyl-based selective modulators targeting multidrug resistance associated protein 1 and P-glycoprotein” (J Med Chem, 2012).

The target of series [1] is ATP-dependent translocase ABCB1 (Homo sapiens, UniProt P08183). The experiment in a line: Inhibition of human MDR1 expressed in MDCK cells assessed as calcein AM accumulation after 30 mins by fluorescence assay. The format is cell-based.
A short description of series [2]: Chemical stability of the compound at 1 to 100 uM after 1 hr by ESI-MS analysis. The format is physicochemical.

ATP-dependent translocase ABCB1, sequence (P08183 whole entry): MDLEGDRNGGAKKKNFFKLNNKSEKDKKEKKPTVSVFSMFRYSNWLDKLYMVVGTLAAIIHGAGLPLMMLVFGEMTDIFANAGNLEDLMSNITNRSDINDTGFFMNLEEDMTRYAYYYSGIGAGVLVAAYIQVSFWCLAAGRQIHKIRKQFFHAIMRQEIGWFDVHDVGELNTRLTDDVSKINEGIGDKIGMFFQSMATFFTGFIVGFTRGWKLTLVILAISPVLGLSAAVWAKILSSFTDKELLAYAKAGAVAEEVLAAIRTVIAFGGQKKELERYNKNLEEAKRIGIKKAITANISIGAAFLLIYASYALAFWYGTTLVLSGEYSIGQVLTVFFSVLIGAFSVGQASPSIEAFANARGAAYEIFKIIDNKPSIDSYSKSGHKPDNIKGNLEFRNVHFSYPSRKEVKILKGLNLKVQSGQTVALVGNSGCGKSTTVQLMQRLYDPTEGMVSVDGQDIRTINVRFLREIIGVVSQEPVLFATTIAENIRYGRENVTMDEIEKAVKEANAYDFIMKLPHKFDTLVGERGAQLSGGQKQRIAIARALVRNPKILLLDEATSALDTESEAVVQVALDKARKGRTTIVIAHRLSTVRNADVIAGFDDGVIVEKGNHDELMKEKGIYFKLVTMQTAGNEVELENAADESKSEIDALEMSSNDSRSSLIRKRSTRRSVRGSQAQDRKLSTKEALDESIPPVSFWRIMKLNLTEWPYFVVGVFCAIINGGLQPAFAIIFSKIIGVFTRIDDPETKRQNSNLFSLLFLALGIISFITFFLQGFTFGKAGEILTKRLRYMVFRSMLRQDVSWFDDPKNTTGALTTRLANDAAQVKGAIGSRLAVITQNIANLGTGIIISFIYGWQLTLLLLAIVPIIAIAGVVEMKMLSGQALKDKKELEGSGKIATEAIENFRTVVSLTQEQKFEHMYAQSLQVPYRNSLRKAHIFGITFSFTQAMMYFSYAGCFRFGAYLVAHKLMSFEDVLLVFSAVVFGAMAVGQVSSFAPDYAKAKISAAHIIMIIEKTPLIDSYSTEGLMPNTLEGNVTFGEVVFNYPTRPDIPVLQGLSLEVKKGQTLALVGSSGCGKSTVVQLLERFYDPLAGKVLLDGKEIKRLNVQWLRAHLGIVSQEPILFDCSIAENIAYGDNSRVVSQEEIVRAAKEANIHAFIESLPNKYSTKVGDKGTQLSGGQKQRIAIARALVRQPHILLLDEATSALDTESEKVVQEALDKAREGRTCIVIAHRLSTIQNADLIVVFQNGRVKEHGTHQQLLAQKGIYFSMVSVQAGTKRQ

`COc1cc(C(=O)Nc2ccc(Br)cc2)cc(OC)c1OC`: in series [1] (read-out: IC50), the IC50 is 20 µM.

Take `COc1cc(C(=O)Nc2ccc(-c3ccccc3)cc2)cc(OC)c1OC`: the IC50 in series [1] (read-out: IC50) is greater than 100 µM.

As to `COc1cc(C(=O)Nc2ccc(-c3ccccc3)cc2N)cc(OC)c1OC`, in series [1] (read-out: IC50), the IC50 is 7.2 µM.

As for `COc1cc(C(=O)Nc2ccc(-c3ccccc3)cc2F)cc(OC)c1OC`, the IC50 in series [1] (read-out: IC50) was 1.4 µM.

Regarding `COc1cc(C(=O)Nc2ccc(-c3ccccc3)cc2[N+](=O)[O-])cc(OC)c1OC`, the IC50 in series [1] (read-out: IC50) is greater than 100 µM. In series [2], the Stability entry is “Stable”.

`COc1cc(C(=O)Nc2ccc(-c3ccccc3)cc2NC(C)=O)cc(OC)c1OC`: in series [1] (read-out: IC50), the IC50 is 1.9 µM.

As for `COc1cc(C(=O)Nc2ccc(Br)cc2[N+](=O)[O-])cc(OC)c1OC`, in series [1] (read-out: IC50), the IC50 was greater than 100 µM.

`COc1ccc(NC(=O)c2cc(OC)c(OC)c(OC)c2)c([N+](=O)[O-])c1`: the IC50 in series [1] (read-out: IC50) was greater than 100 µM.

`COc1cc(C(=O)Nc2cc(-c3ccccc3)ccc2[N+](=O)[O-])cc(OC)c1OC`: the IC50 in series [1] (read-out: IC50) and in series [1] (read-out: pIC50 (converted)) was 0.57 µM in each case.

Consider `COc1cc(C(=O)Nc2ccc(-c3cccs3)cc2[N+](=O)[O-])cc(OC)c1OC`, for which, in series [1] (read-out: IC50), the IC50 is 17.3 µM.

Regarding `COc1cc(C(=O)Nc2ccc(-c3cccnc3)cc2[N+](=O)[O-])cc(OC)c1OC`, the IC50 in series [1] (read-out: IC50) was 6.8 µM.

`COc1cc(C(=O)Nc2ccc(-c3ccc4c(c3)OCO4)cc2[N+](=O)[O-])cc(OC)c1OC`: the IC50 in series [1] (read-out: IC50) and in series [1] (read-out: pIC50 (converted)) was 0.2 µM in each case.

For `COc1cc(C(=O)Nc2ccc(-c3cccc(C(C)=O)c3)cc2[N+](=O)[O-])cc(OC)c1OC`, the IC50 in series [1] (read-out: IC50) and in series [1] (read-out: pIC50 (converted)) was 0.6 µM throughout.

With `COc1cc(C(=O)Nc2ccc(-c3cc(OC)c(OC)c(OC)c3)cc2[N+](=O)[O-])cc(OC)c1OC`, the IC50 in series [1] (read-out: IC50) and in series [1] (read-out: pIC50 (converted)) was 24.3 µM in each case.

For `COc1cc(C(=O)Nc2ccc(-c3cccc([N+](=O)[O-])c3)cc2[N+](=O)[O-])cc(OC)c1OC`, the IC50 in series [1] (read-out: IC50) was 0.4 µM; in series [1] (read-out: pIC50 (converted)) it was greater than 1 µM.

`COc1cc(C(=O)Nc2ccc(-c3ccc[n+](C)c3)cc2[N+](=O)[O-])cc(OC)c1OC`: the IC50 in series [1] (read-out: IC50) is 34 µM.

On to `COc1ccc(C(=O)Nc2ccc(-c3ccccc3)cc2[N+](=O)[O-])cc1OC`, for which the IC50 in series [1] (read-out: IC50) was 1.3 µM.

For the compound `COc1cc(OC)cc(C(=O)Nc2ccc(-c3ccccc3)cc2[N+](=O)[O-])c1`, the IC50 in series [1] (read-out: IC50) is 6.6 µM.

`COc1cc(CNc2ccc(-c3ccccc3)cc2[N+](=O)[O-])cc(OC)c1OC`: the IC50 in series [1] (read-out: IC50) was 1.5 µM.

`COc1cc(NC(=O)c2ccc(-c3ccccc3)cc2[N+](=O)[O-])cc(OC)c1OC`: in series [1] (read-out: IC50), the IC50 was 2 µM.

Take `O=C(Nc1ccc(Br)cc1[N+](=O)[O-])c1cc(O)c(O)c(O)c1`: the IC50 in series [1] (read-out: IC50) is greater than 100 µM.

In the case of `O=C(Nc1ccc(-c2ccccc2)cc1[N+](=O)[O-])c1cc(O)c(O)c(O)c1`, in series [1] (read-out: IC50), the IC50 is greater than 100 µM. In addition, in series [2], the Stability result is “Stable”.

As to `O=C(Nc1ccc(-c2ccccc2)cc1[N+](=O)[O-])c1cc(O)cc(O)c1`, in series [1] (read-out: IC50), the IC50 is 72 µM.

`COc1cc(C(=O)Nc2ccc(Br)cc2[N+](=O)[O-])cc(O)c1O`: the IC50 in series [1] (read-out: IC50) was 38.4 µM.

Regarding `COc1ccc(NC(=O)c2cc(O)c(O)c(OC)c2)c([N+](=O)[O-])c1`, the IC50 in series [1] (read-out: IC50) is 65 µM.

In the case of `COc1cc(C(=O)Nc2cc(-c3ccccc3)ccc2[N+](=O)[O-])cc(O)c1O`, the IC50 in series [1] (read-out: IC50) is 40.2 µM.

As to `COc1cc(C(=O)Nc2ccc(-c3ccccc3)cc2[N+](=O)[O-])cc(O)c1O`, the IC50 in series [1] (read-out: IC50) is 67 µM. For the same compound, in series [2], the Stability entry is recorded as “Stable”.

For `COc1cc(C(=O)Nc2ccc(-c3cc(F)cc(F)c3)cc2[N+](=O)[O-])cc(O)c1O`, the IC50 in series [1] (read-out: IC50) was 16.8 µM.

For `COc1cc(C(=O)Nc2ccc(-c3ccc(O)c(O)c3)cc2[N+](=O)[O-])cc(O)c1O`, the IC50 in series [1] (read-out: IC50) is greater than 100 µM.

Take `COc1cc(C(=O)Nc2ccc(-c3cccc(C(C)=O)c3)cc2[N+](=O)[O-])cc(O)c1O`: the IC50 in series [1] (read-out: IC50) was 9.1 µM.

For the compound `COc1cc(C(=O)Nc2ccc(-c3cc(O)c(O)c(OC)c3)cc2[N+](=O)[O-])cc(O)c1O`, the IC50 in series [1] (read-out: IC50) was 3.1 µM.

`COc1cc(C(=O)Nc2ccc(-c3cccc([N+](=O)[O-])c3)cc2)cc(O)c1O`: in series [1] (read-out: IC50), the IC50 is 32.5 µM.

For `COc1cc(C(=O)Nc2ccc(-c3ccccc3)cc2)cc(O)c1O`, the IC50 in series [1] (read-out: IC50) is greater than 100 µM.

Take `COc1cc(C(=O)Nc2ccc(-c3ccccc3)cc2N)cc(O)c1O`: in series [1] (read-out: IC50), the IC50 is greater than 100 µM.

As for `COc1cc(C(=O)Nc2ccc(-c3ccccc3)cc2F)cc(O)c1O`, the IC50 in series [1] (read-out: IC50) was 14.1 µM.

On to `COc1cc(C(=O)Nc2ccc(-c3ccccc3)cc2NC(C)=O)cc(O)c1O`, for which, in series [1] (read-out: IC50), the IC50 is greater than 100 µM.

Take `COc1ccc(C(=O)Nc2ccc(-c3ccccc3)cc2[N+](=O)[O-])cc1O`: the IC50 in series [1] (read-out: IC50) is 3.5 µM.

Regarding `COc1cc(CNc2ccc(-c3ccccc3)cc2[N+](=O)[O-])cc(O)c1O`, the IC50 in series [1] (read-out: IC50) is 72 µM.

`COc1cc(NC(=O)c2ccc(-c3ccccc3)cc2[N+](=O)[O-])cc(O)c1O`: the IC50 in series [1] (read-out: IC50) is greater than 100 µM.

With `COC1=CC(C(=O)Nc2ccc(-c3ccccc3)cc2[N+](=O)[O-])=CC(=O)C1=O`, in series [1] (read-out: IC50), the IC50 is greater than 100 µM.

`COc1ccc(CCN(C)CCCC(C#N)(c2ccc(O)c(O)c2)C(C)C)cc1OC` (racemic): the IC50 in series [1] (read-out: IC50) was 31.7 µM.
